As usually defined, the refractive index is a measure of how strongly the sample bends light. A word on the mass density: it is mass per unit of volume.

Data set [1] can be described thus: refractive index (Na D-line) (dimensionless); wn = mass fraction of the nth substance listed. The note with it: 298.15 K, 100 kPa, Liquid, Standard Abbe refractometry.
The nature of data set [2]: wn = mass fraction of the nth substance listed. As to conditions: 298.15 K, 100 kPa, Liquid, Vibrating tube method.

± gives the expanded uncertainty stated by the source.

As for `O=B[O-].[Na+]` [sodium metaborate] + O, the refractive index in data set [1] (w1 = 0.2259) was found to be 1.3872 ± 0.0033. Further, the mass density in data set [2] (w1 = 0.2259) is recorded as 1267.8 ± 6.2 kg/m3.
Consider `O=BOB([O-])OB([O-])OB=O.[Na+].[Na+]` [sodium tetraborate] + O, for which, in data set [1] (w1 = 0.0308), the refractive index turned out to be 1.339 ± 0.003. Moreover, the mass density in data set [2] (w1 = 0.0308) came out at 1025.65 ± 0.63 kg/m3.

For the origin of these results see the NIST ThermoML archive (doi:10.1021/acs.jced.9b00780).
